Counter-ions that a name gives are not always drawn. Like-named read-outs stand apart in the source and are kept apart here.
How the values were obtained:
[1] = system: clinical isolates of MRSA; experiment: MIC by broth serial-dilution against 48 clinical isolates of MRSA; assay type: cell-based, methicillin-resistant Staphylococcus aureus; details: Staphylococcus aureus; for MIC: MRSA
Description: The tests against 48 clinical isolates of MRSA from dairy farms in 4 different provinces in China[37] were conducted in triplicate, using broth serial-dilution method in 96-well plates according to CLSI reference methods. Briefly, EDT and tiamulin fumarate used as referent drug were dissolved in 25% dimethyl sulfoxide (DMSO) to a solution with concentration of 64 μg/mL. The obtained 100 μL solutions were then added into the first column of the 96-well plate, and diluted to the tenth well with serial twofold dilutions. The last two wells were used as positive controls. The 100 μL bacterial suspension was diluted in MHB to give a final organism density of to 10^5 ~ 10^6 colony-forming unit (CFU) per 1 mL and added to all the wells, followed by incubating at 37 °C for 24 h. […] The results were expressed as an average of the MICs obtained from three independent experiments.

MRSA-337371 = experiment: microbe, parasite or virus in culture; assay type: cell-based, methicillin-resistant Staphylococcus aureus; details: for MIC: Staphylococcus aureus, MRSA
Description: We performed resistance induction tests on EDT and tiamulin which was used as a referent drug. […] Finally, MRSA was cultured for 30 generations with the same procedure. At the 31st generation, drugs were removed until 40th generation and MICs were determined in each generation.

[2] = system: GFP expression in S. aureus ATCC 29,213; experiment: Green fluorescent protein (GFP) inhibition assay; assay type: cell-based, Staphylococcus aureus; details: 1 and 4 μM, co-incubation 4 h, fluorescence microscopy
Description: The inhibition assay against GFP expression was performed according to our previous report[41] with minor modification. Plasmids carried erythromycin resistant genes were labeled with GFP and electrotransformed into S. aureus. After screenings using erythromycin, S. aureus strain expressing GFP was then obtained and grown to mid-logarithmic phase, followed by collecting centrifugally and re-suspending with PBS buffer. The obtained suspensions were co-incubated with EDT and tiamulin with the final concentrations of 1 and 4 μM, respectively, for 4 h at 37 °C. The cells were subsequently collected by centrifugation to perform imaging using fluorescence microscopy after re-suspending with PBS buffer.

[3] = Cytotoxicity assay (CCK-8), HepG2; assay type: cell-based; details: human, HepG2 cells, read-out: cell viability
Description: Cytotoxicity of EDT and tiamulin was studied against human hepatocellular carcinoma cells (HepG2) and human embryonic kidney 293T (HEK293T) cells following a protocol as published in our earlier reports[41],[42]. Cells were counted and inoculated into 96-well plates with approximately10^5 cells density for incubating 24 h at 37 °C. […] The same procedure was repeated three times. The percentages of cell viability were calculated by the formula: Cell viability (%) = [Asample ‒ Anegative]/[Apositve ‒ Anegative] × 100%.

C=C[C@]1(C)C[C@@H](OC(=O)CSCCN(CC)CC)[C@]2(C)[C@H](C)CC[C@]3(CCC(=O)[C@H]32)[C@@H](C)[C@@H]1O [tiamulin, Tiamulin fumarate, reference compound]
1 µg/mL: MIC ([1]; strain CX9, read-out: MIC) | MIC ([1]; strain SX6, read-out: MIC) | MIC ([1]; strain SX16, read-out: MIC) | MIC ([1]; strain ZY6, read-out: MIC) | MIC ([1]; strain ZY8, read-out: MIC) | MIC (MRSA-337371; 168 h, read-out: MIC in the resistance development study, day 7) | MIC (MRSA-337371; 192 h, read-out: MIC in the resistance development study, day 8) | MIC (MRSA-337371; 216 h, read-out: MIC in the resistance development study, day 9) | MIC (MRSA-337371; 240 h, read-out: MIC in the resistance development study, day 10) | MIC (MRSA-337371; 264 h, read-out: MIC in the resistance development study, day 11) | MIC (MRSA-337371; 288 h, read-out: MIC in the resistance development study, day 12) | MIC (MRSA-337371; 312 h, read-out: MIC in the resistance development study, day 13) | MIC (MRSA-337371; 360 h, read-out: MIC in the resistance development study, day 15)
recovered the initial sensitivity: sensitivity of MRSA after removing drugs (MRSA-337371; after removing drugs and culturing for additional 10 generations)
60.8%: viability at 6 h, 100 µM ([3]; HepG2, 100 μM)
4 µg/mL: MIC (MRSA-337371; 480 h, read-out: MIC in the resistance development study, day 20) | MIC (MRSA-337371; 528 h, read-out: MIC in the resistance development study, day 22) | MIC (MRSA-337371; 552 h, read-out: MIC in the resistance development study, day 23) | MIC (MRSA-337371; 576 h, read-out: MIC in the resistance development study, day 24) | MIC (MRSA-337371; 600 h, read-out: MIC in the resistance development study, day 25) | MIC (MRSA-337371; 624 h, read-out: MIC in the resistance development study, day 26) | MIC (MRSA-337371; 648 h, read-out: MIC in the resistance development study, day 27) | MIC (MRSA-337371; 672 h, read-out: MIC in the resistance development study, day 28) | MIC (MRSA-337371; 696 h, read-out: MIC in the resistance development study, day 29) | MIC (MRSA-337371; read-out: MIC in the resistance development study, day 30) | MIC (MRSA-337371; read-out: MIC in the resistance development study, day 31, drugs removed) | MIC (MRSA-337371; read-out: MIC in the resistance development study, day 32, drugs removed)
0.125 to 1 µg/mL: MIC ([1]; range over 48 clinical isolates of MRSA, read-out: MIC values against 48 strains)
2 µg/mL: MIC (MRSA-337371; 336 h, read-out: MIC in the resistance development study, day 14) | MIC (MRSA-337371; 384 h, read-out: MIC in the resistance development study, day 16) | MIC (MRSA-337371; 408 h, read-out: MIC in the resistance development study, day 17) | MIC (MRSA-337371; 432 h, read-out: MIC in the resistance development study, day 18) | MIC (MRSA-337371; 456 h, read-out: MIC in the resistance development study, day 19) | MIC (MRSA-337371; 504 h, read-out: MIC in the resistance development study, day 21) | MIC (MRSA-337371; read-out: MIC in the resistance development study, day 33, drugs removed) | MIC (MRSA-337371; read-out: MIC in the resistance development study, day 34, drugs removed) | MIC (MRSA-337371; read-out: MIC in the resistance development study, day 35, drugs removed)
twofold: increase in the MIC values (MRSA-337371; after 7 generations of continuous culture of MRSA)
inhibited GFP expression: inhibition of GFP expression (green fluorescence intensity) [2]
55.6%: viability at 6 h, 200 µM ([3]; HepG2, 200 μM)
0.5 µg/mL: MIC ([1]; strain CX1, read-out: MIC) | MIC ([1]; strain CX2, read-out: MIC) | MIC ([1]; strain CX5, read-out: MIC) | MIC ([1]; strain CX6, read-out: MIC) | MIC ([1]; strain CX7, read-out: MIC) | MIC ([1]; strain HG2, read-out: MIC) | MIC ([1]; strain HG3, read-out: MIC) | MIC ([1]; strain HG4, read-out: MIC) | MIC ([1]; strain HG5, read-out: MIC) | MIC ([1]; strain HG6, read-out: MIC) | MIC ([1]; strain HG7, read-out: MIC) | MIC ([1]; strain QY4, read-out: MIC) | MIC ([1]; strain QY5, read-out: MIC) | MIC ([1]; strain QY6, read-out: MIC) | MIC ([1]; strain QY8, read-out: MIC) | MIC ([1]; strain QY10, read-out: MIC) | MIC ([1]; strain SH3, read-out: MIC) | MIC ([1]; strain SH4, read-out: MIC) | MIC ([1]; strain SH6, read-out: MIC) | MIC ([1]; strain SH7, read-out: MIC) | MIC ([1]; strain SH9, read-out: MIC) | MIC ([1]; strain SH10, read-out: MIC) | MIC ([1]; strain SH11, read-out: MIC) | MIC ([1]; strain SH12, read-out: MIC) | MIC ([1]; strain SH13, read-out: MIC) | MIC ([1]; strain SH15, read-out: MIC) | MIC ([1]; strain SX5, read-out: MIC) | MIC ([1]; strain SX7, read-out: MIC) | MIC ([1]; strain SX8, read-out: MIC) | MIC ([1]; strain SX9, read-out: MIC) | MIC ([1]; strain SX10, read-out: MIC) | MIC ([1]; strain SX17, read-out: MIC) | MIC ([1]; strain SX18, read-out: MIC) | MIC ([1]; strain ZY1, read-out: MIC) | MIC ([1]; strain ZY2, read-out: MIC) | MIC ([1]; strain ZY4, read-out: MIC) | MIC ([1]; strain ZY5, read-out: MIC) | MIC ([1]; strain ZY7, read-out: MIC) | MIC (MRSA-337371; 24 h, read-out: MIC in the resistance development study, day 1) | MIC (MRSA-337371; 48 h, read-out: MIC in the resistance development study, day 2) | MIC (MRSA-337371; 72 h, read-out: MIC in the resistance development study, day 3) | MIC (MRSA-337371; 96 h, read-out: MIC in the resistance development study, day 4) | MIC (MRSA-337371; 120 h, read-out: MIC in the resistance development study, day 5) | MIC (MRSA-337371; 144 h, read-out: MIC in the resistance development study, day 6)
0.25 µg/mL: MIC ([1]; strain HG1, read-out: MIC) | MIC ([1]; strain SH8, read-out: MIC) | MIC ([1]; strain ZY3, read-out: MIC) | MIC ([1]; strain ZY9, read-out: MIC)
eightfold: increase in the MIC values (MRSA-337371; at 22 generations)
0%: inhibition at 0.0625 µg/mL ([1]; at 0.0625 µg/mL, 48 clinical isolates of MRSA, read-out: strains inhibited)
0.125 µg/mL: MIC ([1]; strain SH14, read-out: MIC)

— paper PMC10502144, “Anti-methicillin-resistant Staphylococcus aureus activity and safety evaluation of 14-O-[(5-ethoxycarbonyl-4,6-dimethylpyrimidine-2-yl) thioacetyl] mutilin (EDT)” (Scientific Reports, 2023)
